The text below walks through data of patent US10870647B2, “Imidazopyridine derivative, method for preparing same, and pharmaceutical composition containing same as active ingredient for preventing or treating cancer” (DAEGU-GYEONGBUK MEDICAL INNOVATION FOUNDATION, priority 2016, dated 2020).

What all share (assay): Kinase selectivity, scanMAX Kinase assay panel (DiscoverX), % control at 1 uM
Common to all, as to type: binding

The target of experiment [1] is T1, scanMAX Kinase assay panel (Homo sapiens, UniProt P00533, DEL746-750).
T1 construct: purchased DiscoverX
The conditions noted are these: EGFR (E746-A750del); 1 uM; read-out: Percent Control (%). The procedure, abridged:
(§1)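 Compounds were tested at 1 uM in DMSO against each enzyme in the panel. Percent control was calculated as (compound − positive control)/(negative control − positive control) × 100, and a compound was scored active on a kinase when this value fell below 35.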

The target of experiment [2] is T2, scanMAX Kinase assay panel (Homo sapiens, UniProt P06239).
T2 construct: purchased DiscoverX
The conditions noted are these: LCK; 1 uM; read-out: Percent Control (%). The procedure, abridged: as §1

Experiment [3] addresses T3, scanMAX Kinase assay panel (Homo sapiens, UniProt P36888).
T3 construct: purchased DiscoverX
T3 sequence (P36888 27-993): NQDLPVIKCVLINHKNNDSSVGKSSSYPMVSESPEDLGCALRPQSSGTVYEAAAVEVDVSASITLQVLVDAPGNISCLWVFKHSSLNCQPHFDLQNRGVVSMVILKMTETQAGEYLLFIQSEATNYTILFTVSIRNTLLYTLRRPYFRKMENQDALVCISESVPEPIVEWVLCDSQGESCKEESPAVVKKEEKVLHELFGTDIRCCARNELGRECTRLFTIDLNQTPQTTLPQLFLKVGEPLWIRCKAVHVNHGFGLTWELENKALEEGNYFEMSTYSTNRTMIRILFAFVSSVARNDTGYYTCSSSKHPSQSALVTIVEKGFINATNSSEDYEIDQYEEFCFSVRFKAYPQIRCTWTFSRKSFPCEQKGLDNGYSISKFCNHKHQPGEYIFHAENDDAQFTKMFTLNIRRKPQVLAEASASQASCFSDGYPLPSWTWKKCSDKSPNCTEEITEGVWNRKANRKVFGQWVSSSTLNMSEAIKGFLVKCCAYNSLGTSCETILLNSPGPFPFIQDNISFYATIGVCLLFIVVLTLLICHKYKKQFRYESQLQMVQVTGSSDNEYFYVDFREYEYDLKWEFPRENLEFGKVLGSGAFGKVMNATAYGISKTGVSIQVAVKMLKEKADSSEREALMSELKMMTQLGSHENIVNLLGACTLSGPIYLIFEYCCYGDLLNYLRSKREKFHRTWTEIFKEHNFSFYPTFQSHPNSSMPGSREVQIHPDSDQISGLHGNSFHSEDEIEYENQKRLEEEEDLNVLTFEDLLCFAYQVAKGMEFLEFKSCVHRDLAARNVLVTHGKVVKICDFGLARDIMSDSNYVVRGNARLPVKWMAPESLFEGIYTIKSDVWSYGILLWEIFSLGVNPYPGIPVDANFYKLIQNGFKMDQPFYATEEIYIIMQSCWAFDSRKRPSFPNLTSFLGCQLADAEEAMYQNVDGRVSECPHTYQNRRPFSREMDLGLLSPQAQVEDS
The conditions noted are these: 1 uM, read-out: Percent Control (%). The method, boiled down: as §1

For experiment [4], the target named is T4, scanMAX Kinase assay panel (Homo sapiens, UniProt P53671).
T4 construct: purchased DiscoverX
The conditions noted are these: LIMK2; 1 uM; read-out: Percent Control (%). The method, boiled down:
as §1

In experiment [5] the target is T5, scanMAX Kinase assay panel (Homo sapiens, UniProt P54753).
T5 construct: purchased DiscoverX
T5 sequence (P54753 34-998): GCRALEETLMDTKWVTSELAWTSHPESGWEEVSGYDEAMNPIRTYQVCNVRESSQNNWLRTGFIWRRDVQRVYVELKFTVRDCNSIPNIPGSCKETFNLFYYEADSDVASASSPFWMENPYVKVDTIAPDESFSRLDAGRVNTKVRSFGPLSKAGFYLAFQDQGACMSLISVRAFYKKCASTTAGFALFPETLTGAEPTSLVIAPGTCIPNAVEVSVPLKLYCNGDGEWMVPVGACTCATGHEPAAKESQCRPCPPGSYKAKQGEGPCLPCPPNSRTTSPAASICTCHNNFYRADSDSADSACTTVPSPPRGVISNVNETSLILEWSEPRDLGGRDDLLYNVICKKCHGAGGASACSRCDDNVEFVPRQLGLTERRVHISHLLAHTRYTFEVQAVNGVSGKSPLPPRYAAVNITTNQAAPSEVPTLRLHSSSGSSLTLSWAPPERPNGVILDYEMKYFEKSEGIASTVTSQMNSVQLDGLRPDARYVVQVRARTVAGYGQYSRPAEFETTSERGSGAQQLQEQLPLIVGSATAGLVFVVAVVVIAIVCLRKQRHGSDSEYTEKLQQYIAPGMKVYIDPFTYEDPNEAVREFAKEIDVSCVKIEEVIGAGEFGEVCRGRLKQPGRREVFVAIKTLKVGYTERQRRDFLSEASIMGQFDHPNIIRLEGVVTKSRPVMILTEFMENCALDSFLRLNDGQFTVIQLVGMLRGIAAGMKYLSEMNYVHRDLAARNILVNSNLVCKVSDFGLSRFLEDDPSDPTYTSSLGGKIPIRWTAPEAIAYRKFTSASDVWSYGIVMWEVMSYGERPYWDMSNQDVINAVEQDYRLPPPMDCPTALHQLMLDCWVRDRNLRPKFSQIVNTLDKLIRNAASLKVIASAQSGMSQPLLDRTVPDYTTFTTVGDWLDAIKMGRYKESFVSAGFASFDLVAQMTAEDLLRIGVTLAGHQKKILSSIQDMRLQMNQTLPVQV
The conditions noted are these: EPHB3; 1 uM; read-out: Percent Control (%). The method, boiled down: as §1

Experiment [6] addresses T6, scanMAX Kinase assay panel (Homo sapiens, UniProt Q08345).
T6 construct: purchased DiscoverX
The conditions noted are these: DDR1; 1 uM; read-out: Percent Control (%). The method, boiled down: as §1

The target of experiment [7] is T7, scanMAX Kinase assay panel (Homo sapiens, UniProt Q13164).
T7 construct: purchased DiscoverX
Conditions: ERK5; 1 uM; read-out: Percent Control (%). The method, boiled down: as §1

Experiment [8] concerns the target T8, scanMAX Kinase assay panel (Homo sapiens, UniProt Q52WX2).
T8 construct: purchased DiscoverX
The conditions noted are these: SBK1; 1 uM; read-out: Percent Control (%). The procedure, abridged:
as §1

Experiment [9] concerns the target T9, scanMAX Kinase assay panel (Homo sapiens, UniProt Q7KZI7).
T9 construct: purchased DiscoverX
The conditions noted are these: MARK2; 1 uM; read-out: Percent Control (%). The procedure, abridged: as §1

Experiment [10] deals with T10, scanMAX Kinase assay panel (Homo sapiens, UniProt Q9Y2K2).
T10 construct: purchased DiscoverX
The conditions noted are these: QSK; 1 uM; read-out: Percent Control (%). The method, boiled down:
as §1

Read-outs that look alike come from different tables or passages of the source.

T1 sequence (P00533 with tags, fused parts or gaps DEL746-750): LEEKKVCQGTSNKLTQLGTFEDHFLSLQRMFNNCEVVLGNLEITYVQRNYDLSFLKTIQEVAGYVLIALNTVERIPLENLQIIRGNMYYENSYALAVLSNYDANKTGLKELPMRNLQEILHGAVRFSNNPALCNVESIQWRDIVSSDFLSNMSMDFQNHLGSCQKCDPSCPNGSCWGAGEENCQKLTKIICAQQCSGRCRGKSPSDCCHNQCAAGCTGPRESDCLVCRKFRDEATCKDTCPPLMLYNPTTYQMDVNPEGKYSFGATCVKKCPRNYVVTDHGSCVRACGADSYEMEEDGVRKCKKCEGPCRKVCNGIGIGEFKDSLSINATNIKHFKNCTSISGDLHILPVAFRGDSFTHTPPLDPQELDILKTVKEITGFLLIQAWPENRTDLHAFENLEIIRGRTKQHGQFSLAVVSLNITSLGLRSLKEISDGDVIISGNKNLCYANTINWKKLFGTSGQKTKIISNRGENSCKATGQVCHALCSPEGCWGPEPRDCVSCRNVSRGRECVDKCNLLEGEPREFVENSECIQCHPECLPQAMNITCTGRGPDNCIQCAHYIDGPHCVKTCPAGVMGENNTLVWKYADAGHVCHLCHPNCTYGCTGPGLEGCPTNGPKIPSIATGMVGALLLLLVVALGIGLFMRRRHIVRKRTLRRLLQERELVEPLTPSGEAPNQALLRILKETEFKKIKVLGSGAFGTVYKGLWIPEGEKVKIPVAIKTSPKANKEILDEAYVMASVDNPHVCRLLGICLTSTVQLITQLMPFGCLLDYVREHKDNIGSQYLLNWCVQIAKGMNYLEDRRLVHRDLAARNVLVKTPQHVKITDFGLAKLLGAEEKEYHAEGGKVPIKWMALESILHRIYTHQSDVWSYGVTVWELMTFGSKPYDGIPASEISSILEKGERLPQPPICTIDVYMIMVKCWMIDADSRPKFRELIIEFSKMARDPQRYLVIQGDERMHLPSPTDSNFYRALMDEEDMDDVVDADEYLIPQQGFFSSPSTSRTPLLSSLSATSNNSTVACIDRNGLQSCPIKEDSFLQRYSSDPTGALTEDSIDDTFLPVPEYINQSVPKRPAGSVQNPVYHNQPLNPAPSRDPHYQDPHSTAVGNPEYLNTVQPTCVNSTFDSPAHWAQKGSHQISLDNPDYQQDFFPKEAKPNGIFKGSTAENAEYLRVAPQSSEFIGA
T10 sequence (Q9Y2K2 whole entry): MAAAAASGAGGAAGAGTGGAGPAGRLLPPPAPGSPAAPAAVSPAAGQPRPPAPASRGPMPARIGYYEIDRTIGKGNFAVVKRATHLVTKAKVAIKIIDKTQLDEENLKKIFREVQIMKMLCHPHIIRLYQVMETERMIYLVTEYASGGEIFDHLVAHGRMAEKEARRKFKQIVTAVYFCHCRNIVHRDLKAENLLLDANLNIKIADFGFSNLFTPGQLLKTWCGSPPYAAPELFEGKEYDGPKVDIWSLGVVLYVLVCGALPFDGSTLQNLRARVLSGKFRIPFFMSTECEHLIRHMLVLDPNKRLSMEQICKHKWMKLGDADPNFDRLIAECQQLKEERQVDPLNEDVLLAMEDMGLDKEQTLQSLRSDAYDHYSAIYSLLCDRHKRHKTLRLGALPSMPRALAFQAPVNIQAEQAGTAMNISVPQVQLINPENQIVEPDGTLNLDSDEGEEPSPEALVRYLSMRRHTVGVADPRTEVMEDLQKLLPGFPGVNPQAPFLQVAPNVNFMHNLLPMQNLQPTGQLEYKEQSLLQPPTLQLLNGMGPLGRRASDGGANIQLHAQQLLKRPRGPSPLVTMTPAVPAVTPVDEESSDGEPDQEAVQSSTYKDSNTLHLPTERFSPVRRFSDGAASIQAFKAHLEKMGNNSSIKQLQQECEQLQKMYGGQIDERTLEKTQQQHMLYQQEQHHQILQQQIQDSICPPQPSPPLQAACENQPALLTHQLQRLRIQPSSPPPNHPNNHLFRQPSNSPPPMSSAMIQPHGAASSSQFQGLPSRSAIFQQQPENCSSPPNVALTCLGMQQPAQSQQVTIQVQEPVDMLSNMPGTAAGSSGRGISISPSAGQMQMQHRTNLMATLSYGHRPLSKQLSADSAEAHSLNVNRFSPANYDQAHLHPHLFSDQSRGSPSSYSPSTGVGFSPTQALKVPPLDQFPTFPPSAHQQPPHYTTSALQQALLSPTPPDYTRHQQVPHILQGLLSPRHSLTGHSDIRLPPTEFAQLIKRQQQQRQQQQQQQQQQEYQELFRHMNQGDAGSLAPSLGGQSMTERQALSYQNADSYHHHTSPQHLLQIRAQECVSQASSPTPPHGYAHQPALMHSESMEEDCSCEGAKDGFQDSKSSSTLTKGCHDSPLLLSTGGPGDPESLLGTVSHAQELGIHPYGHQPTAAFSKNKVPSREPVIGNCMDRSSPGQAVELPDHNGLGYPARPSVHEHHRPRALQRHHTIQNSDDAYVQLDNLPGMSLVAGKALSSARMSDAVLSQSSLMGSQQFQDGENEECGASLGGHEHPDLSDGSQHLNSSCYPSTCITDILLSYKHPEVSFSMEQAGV
T2 sequence (P06239 whole entry): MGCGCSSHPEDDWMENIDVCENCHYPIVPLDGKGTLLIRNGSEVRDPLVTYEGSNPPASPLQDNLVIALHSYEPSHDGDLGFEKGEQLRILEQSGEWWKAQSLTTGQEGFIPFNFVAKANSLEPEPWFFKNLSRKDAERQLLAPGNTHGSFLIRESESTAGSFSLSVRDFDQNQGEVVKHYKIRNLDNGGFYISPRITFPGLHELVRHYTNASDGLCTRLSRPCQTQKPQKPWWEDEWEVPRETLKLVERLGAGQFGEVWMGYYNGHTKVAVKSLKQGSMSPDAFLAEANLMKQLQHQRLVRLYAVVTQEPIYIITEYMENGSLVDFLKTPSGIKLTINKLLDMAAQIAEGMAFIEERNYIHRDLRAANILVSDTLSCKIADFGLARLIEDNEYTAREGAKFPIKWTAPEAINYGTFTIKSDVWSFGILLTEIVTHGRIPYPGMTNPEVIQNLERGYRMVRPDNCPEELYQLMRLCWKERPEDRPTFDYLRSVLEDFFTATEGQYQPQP
T8 sequence (Q52WX2 whole entry): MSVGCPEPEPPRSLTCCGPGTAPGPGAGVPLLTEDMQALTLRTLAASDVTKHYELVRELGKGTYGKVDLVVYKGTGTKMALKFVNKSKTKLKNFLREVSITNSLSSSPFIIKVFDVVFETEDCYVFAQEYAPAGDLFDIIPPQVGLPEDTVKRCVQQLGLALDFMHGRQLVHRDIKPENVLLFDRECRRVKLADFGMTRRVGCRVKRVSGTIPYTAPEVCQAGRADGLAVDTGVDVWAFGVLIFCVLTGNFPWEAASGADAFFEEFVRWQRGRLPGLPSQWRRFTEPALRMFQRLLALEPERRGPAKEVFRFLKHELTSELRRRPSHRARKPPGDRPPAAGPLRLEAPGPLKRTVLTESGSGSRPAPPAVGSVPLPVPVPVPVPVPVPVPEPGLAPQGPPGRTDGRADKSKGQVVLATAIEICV
T6 sequence (Q08345 19-913): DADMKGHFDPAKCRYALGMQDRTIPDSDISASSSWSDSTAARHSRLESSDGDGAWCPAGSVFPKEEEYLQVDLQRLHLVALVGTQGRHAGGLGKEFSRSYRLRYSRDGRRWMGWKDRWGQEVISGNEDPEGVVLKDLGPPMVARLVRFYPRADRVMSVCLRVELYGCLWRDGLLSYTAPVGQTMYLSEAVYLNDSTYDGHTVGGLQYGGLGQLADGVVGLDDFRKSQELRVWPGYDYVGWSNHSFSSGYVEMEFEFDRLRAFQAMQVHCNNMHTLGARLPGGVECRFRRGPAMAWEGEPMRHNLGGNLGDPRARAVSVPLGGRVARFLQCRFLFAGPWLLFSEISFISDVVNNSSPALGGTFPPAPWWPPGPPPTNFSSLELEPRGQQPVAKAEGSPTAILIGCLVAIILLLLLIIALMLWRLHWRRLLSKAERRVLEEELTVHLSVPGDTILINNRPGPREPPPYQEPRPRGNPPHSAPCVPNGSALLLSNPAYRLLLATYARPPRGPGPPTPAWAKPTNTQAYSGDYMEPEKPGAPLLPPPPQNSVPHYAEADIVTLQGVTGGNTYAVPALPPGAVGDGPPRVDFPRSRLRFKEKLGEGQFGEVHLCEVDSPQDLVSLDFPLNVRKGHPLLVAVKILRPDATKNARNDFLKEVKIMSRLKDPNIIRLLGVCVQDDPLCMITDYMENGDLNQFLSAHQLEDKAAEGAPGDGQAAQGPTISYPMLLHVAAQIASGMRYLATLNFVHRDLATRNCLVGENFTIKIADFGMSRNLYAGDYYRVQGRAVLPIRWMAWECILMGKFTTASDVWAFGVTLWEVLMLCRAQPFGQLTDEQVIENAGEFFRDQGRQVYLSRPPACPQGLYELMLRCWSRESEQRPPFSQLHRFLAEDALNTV
T4 sequence (P53671 whole entry): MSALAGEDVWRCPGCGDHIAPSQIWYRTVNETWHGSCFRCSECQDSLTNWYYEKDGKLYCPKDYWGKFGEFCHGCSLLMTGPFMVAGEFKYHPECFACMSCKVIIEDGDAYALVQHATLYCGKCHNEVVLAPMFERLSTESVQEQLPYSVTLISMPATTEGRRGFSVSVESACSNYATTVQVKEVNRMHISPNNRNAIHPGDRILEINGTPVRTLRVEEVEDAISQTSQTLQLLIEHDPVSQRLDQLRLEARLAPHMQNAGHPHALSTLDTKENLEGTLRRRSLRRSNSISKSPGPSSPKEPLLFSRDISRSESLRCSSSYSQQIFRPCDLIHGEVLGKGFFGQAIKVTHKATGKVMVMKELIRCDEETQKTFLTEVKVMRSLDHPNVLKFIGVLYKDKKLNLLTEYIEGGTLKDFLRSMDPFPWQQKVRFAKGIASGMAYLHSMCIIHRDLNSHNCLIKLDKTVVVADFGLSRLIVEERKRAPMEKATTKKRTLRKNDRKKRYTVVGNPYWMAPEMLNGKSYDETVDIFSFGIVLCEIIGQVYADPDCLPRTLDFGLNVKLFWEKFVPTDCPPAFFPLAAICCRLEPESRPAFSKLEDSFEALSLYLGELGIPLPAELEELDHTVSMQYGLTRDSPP

With `Cc1ccc(C(=O)Nc2ccc(CN3CCN(C)CC3)c(C(F)(F)F)c2)cc1C#Cc1cnc2c(Nc3cnn(C)c3)cccn12` [Example 1, 4-methyl-3-((8-((1-methyl-1H-pyrazol-4-yl)amino)imidazo[1,2-a]pyridin-3-yl)ethynyl)-N-(4-((4-methylpiperazin-1-yl)methyl)-3-(trifluoromethyl)phenyl)benzamide], the remaining binding at 1 µM in experiment [1] was 0%; in [2] it was 0%; in experiment [3] (FLT3-autoinhibited), 46%; in [3] (FLT3), 1%; in [4], 3%; in experiment [5], 47%. The remaining binding at 1 µM in [6] came out at 0%; in experiment [7] it was 78%; in experiment [8], 89%; in experiment [9], 73%; in [10] it was 89%.

Regarding `Cc1ccc(NC(=O)C2(C(=O)Nc3ccc(F)cc3)CC2)cc1C#Cc1cnc2c(Nc3cnn(C(C)C)c3)cccn12` [Example 78], the remaining binding at 1 µM turned out to be 93% in experiment [1]; 40% in [2]; 100% in experiment [3] (FLT3-autoinhibited); 42% in [3] (FLT3); 100% in [4]; 100% in experiment [5]. In addition, the remaining binding at 1 µM in experiment [6] is 1%; in [7], 100%; in experiment [8] it was 100%; in experiment [9], 89%; in experiment [10], 100%.

Turning to `Cc1cn(-c2cc(NC(=O)c3ccc(C)c(C#Cc4cnc5c(Nc6cnn(C)c6)cccn45)c3)cc(C(F)(F)F)c2)cn1` [Example 12, 4-methyl-N-(3-(4-methyl-1H-imidazol-1-yl)-5-(trifluoromethyl)phenyl)-3-((8-((1-methyl-1H-pyrazol-4-yl)amino)imidazo[1,2-a]pyridin-3-yl)ethynyl)benzamide], the remaining binding at 1 µM was 8% in experiment [1]; 0% in experiment [2]; 100% in [3] (FLT3-autoinhibited); 4% in experiment [3] (FLT3); 50% in experiment [4]; 100% in experiment [5]. The remaining binding at 1 µM in [6] was 7%; in experiment [7], 90%; in experiment [8], 94%; in experiment [9], 99%; in experiment [10], 97%.
